Source: patent publication US11180462B2, “Microbiocidal oxadiazole derivatives” (SYNGENTA PARTICIPATIONS AG, priority 2015, dated 2021)

Columns and labels:
[1] = test system: Glomerella lagenarium (Colletotrichum lagenarium); test: Fungicidal activity against Glomerella lagenarium (Colletotrichum lagenarium) liquid culture / cucumber / preventative (anthracnose); format: cell-based; conditions: Colletotrichum orbiculare; 20 ppm in the applied formulation; liquid culture (PDB), growth inhibition measured photometrically after 3 to 4 days; compared to untreated control; read-out: disease control
Procedure, shortened: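 Percent activity against the untreated check was derived from photometric growth measurements made 2 to 7 days after conidia in potato dextrose broth were combined with compound at 20 ppm. Cultures were kept dark at 24 °C and 96% humidity.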

Phakopsora Pachyrhizi = test: Fungicidal activity against Phakopsora pachyrhizi / soybean / leaf disc preventative (Asian soybean rust); format: in vivo; conditions: foliar, 200 ppm in the applied formulation, soybean leaf disks, compared to untreated control leaf disks, read-out: disease control
Method: Leaf disks or leaf segments of various plant species are cut from plants grown in a greenhouse. The cut leaf disks or segments are placed in multiwell plates (24-well format) onto water agar. The leaf disks are sprayed with a test solution before (preventative) or after (curative) inoculation. Compounds to be tested are prepared as DMSO solutions (max. 10 mg/ml) which are diluted to the appropriate concentration with 0.025% Tween20 just before spraying. The inoculated leaf disks or segments are incubated under defined conditions (temperature, relative humidity, light, etc.) according to the respective test system. A single evaluation of disease level is carried out 3 to 14 days after inoculation, depending on the pathosystem. Percent disease control relative to the untreated check leaf disks or segments is then calculated.
Fungicidal Activity Against Phakopsora Pachyrhizi Soybean/Leaf Disc Preventative (Asian Soybean Rust)
Soybean leaf disks are placed on water agar in multiwell plates (24-well format) and sprayed with the formulated test compound diluted in water. One day after application leaf discs are inoculated by spraying a spore suspension on the lower leaf surface. After an incubation period in a climate cabinet of 24-36 hours in darkness at 20° C. and 75% rh leaf disc are kept at 20° C. with 12 h light/day and 75% rh. The activity of a compound is assessed as percent disease control compared to untreated when an appropriate level of disease damage appears in untreated check leaf disks (12 to 14 days after application).
The following compounds at 200 ppm in the applied formulation give at least 80% disease control in this test when compared to untreated control leaf disks under the same conditions, which show extensive disease development.

In the case of `O=C(CC1CCCC1)N(Cc1ccc(-c2noc(C(F)(F)F)n2)cc1)C1CC1` [Compound 1.84, 2-cyclopentyl-N-cyclopropyl-N-[[4-[5-(trifluoromethyl)-1,2,4-oxadiazol-3-yl]phenyl]methyl]-acetamide], the inhibition of growth at 20 ppm [1] is reported as at least 80% and the pest or weed control at 200 ppm (Phakopsora Pachyrhizi) is reported as at least 80%.

`C#CCN(Cc1ccc(-c2noc(C(F)(F)F)n2)cc1)C(=O)C1CC1c1ccccc1` (stereo not drawn) [Compound 1.166, 2-phenyl-N-prop-2-ynyl-N-[[4-[5-(trifluoromethyl)-1,2,4-oxadiazol-3-yl]phenyl]methyl]-cyclopropane-carboxamide] gave an inhibition of growth at 20 ppm [1] of at least 80% and a pest or weed control at 200 ppm (Phakopsora Pachyrhizi) of at least 80%.

For `C#CCN(Cc1ccc(-c2noc(C(F)(F)F)n2)cc1)C(=O)C(C)(CC)CC` [Compound 1.195, 2-ethyl-2-methyl-N-prop-2-ynyl-N-[[4-[5-(trifluoromethyl)-1,2,4-oxadiazol-3-yl]phenyl]methyl]-butanamide], the inhibition of growth at 20 ppm [1] was at least 80% and the pest or weed control at 200 ppm (Phakopsora Pachyrhizi) was at least 80%.

Work on `O=C(CC(F)(F)F)N(Cc1ccc(-c2noc(C(F)(F)F)n2)cc1)CC1CC1` [Compound 1.220, N-(cyclopropylmethyl)-3,3,3-trifluoro-N-[[4-[5-(trifluoromethyl)-1,2,4-oxadiazol-3-yl]phenyl]methyl]-propanamide] yielded an inhibition of growth at 20 ppm [1] of at least 80% and a pest or weed control at 200 ppm (Phakopsora Pachyrhizi) of at least 80%.

In the case of `CC(C)(C)CC(=O)N(Cc1ccc(-c2noc(C(F)(F)F)n2)cc1)CC1CC1` [Compound 1.224, N-(cyclopropylmethyl)-3,3-dimethyl-N-[[4-[5-(trifluoromethyl)-1,2,4-oxadiazol-3-yl]phenyl]methyl]-butanamide], the inhibition of growth at 20 ppm [1] is reported as at least 80% and the pest or weed control at 200 ppm (Phakopsora Pachyrhizi) is reported as at least 80%.

Compound `O=C(C1CC1)N(Cc1ccc(-c2noc(C(F)(F)F)n2)cc1)CC1CC1` [Compound 1.246, N-(cyclopropylmethyl)-N-[[4-[5-(trifluoromethyl)-1,2,4-oxadiazol-3-yl]phenyl]methyl]-cyclopropane-carboxamide] has an inhibition of growth at 20 ppm [1] of at least 80% and a pest or weed control at 200 ppm (Phakopsora Pachyrhizi) of at least 80%.

Work on `CCON(Cc1ccc(-c2noc(C(F)(F)F)n2)cc1)C(=O)c1ccccc1Cl` [Compound 1.616, 2-chloro-N-ethoxy-N-[[4-[5-(trifluoromethyl)-1,2,4-oxadiazol-3-yl]phenyl]methyl]-benzamide] yielded an inhibition of growth at 20 ppm [1] of at least 80% and a pest or weed control at 200 ppm (Phakopsora Pachyrhizi) of at least 80%.

`CCON(Cc1ccc(-c2noc(C(F)(F)F)n2)cc1)C(=O)CC(F)(F)F` [Compound 1.630, N-ethoxy-3,3,3-trifluoro-N-[[4-[5-(trifluoromethyl)-1,2,4-oxadiazol-3-yl]phenyl]methyl]-propanamide] was tested, and the inhibition of growth at 20 ppm [1] was at least 80% and the pest or weed control at 200 ppm (Phakopsora Pachyrhizi) was at least 80%.

`CCON(Cc1ccc(-c2noc(C(F)(F)F)n2)cc1)C(=O)CC1CC1` [Compound 1.632, 2-cyclopropyl-N-ethoxy-N-[[4-[5-(trifluoromethyl)-1,2,4-oxadiazol-3-yl]phenyl]methyl]-acetamide] was tested, and the inhibition of growth at 20 ppm [1] was at least 80% and the pest or weed control at 200 ppm (Phakopsora Pachyrhizi) was at least 80%.

`CCCCON(Cc1ccc(-c2noc(C(F)(F)F)n2)cc1)C(=O)C1CC1(F)F` (stereo not drawn) [Compound 1.634, N-butoxy-2,2-difluoro-N-[[4-[5-(trifluoromethyl)-1,2,4-oxadiazol-3-yl]phenyl]methyl]-cyclopropane-carboxamide] gave an inhibition of growth at 20 ppm [1] of at least 80% and a pest or weed control at 200 ppm (Phakopsora Pachyrhizi) of at least 80%.

In the case of `CCCCON(Cc1ccc(-c2noc(C(F)(F)F)n2)cc1)C(=O)CCOC` [Compound 1.637, N-butoxy-3-methoxy-N-[[4-[5-(trifluoromethyl)-1,2,4-oxadiazol-3-yl]phenyl]methyl]-propanamide], the inhibition of growth at 20 ppm [1] is reported as at least 80% and the pest or weed control at 200 ppm (Phakopsora Pachyrhizi) is reported as at least 80%.

For `CCCCON(Cc1ccc(-c2noc(C(F)(F)F)n2)cc1)C(=O)C1(C)CC1` [Compound 1.639, N-butoxy-1-methyl-N-[[4-[5-(trifluoromethyl)-1,2,4-oxadiazol-3-yl]phenyl]methyl]-cyclopropane-carboxamide], the inhibition of growth at 20 ppm [1] was at least 80% and the pest or weed control at 200 ppm (Phakopsora Pachyrhizi) was at least 80%.

`CCCCON(Cc1ccc(-c2noc(C(F)(F)F)n2)cc1)C(=O)C1(C)COC1` [Compound 1.641, N-butoxy-3-methyl-N-[[4-[5-(trifluoromethyl)-1,2,4-oxadiazol-3-yl]phenyl]methyl]-oxetane-3-carboxamide] gave an inhibition of growth at 20 ppm [1] of at least 80% and a pest or weed control at 200 ppm (Phakopsora Pachyrhizi) of at least 80%.

In the case of `CCCCON(Cc1ccc(-c2noc(C(F)(F)F)n2)cc1)C(=O)C(CC)COC` (stereo not drawn) [Compound 1.642, N-butoxy-2-(methoxymethyl)-N-[[4-[5-(trifluoromethyl)-1,2,4-oxadiazol-3-yl]phenyl]methyl]-butanamide], the inhibition of growth at 20 ppm [1] is reported as at least 80% and the pest or weed control at 200 ppm (Phakopsora Pachyrhizi) is reported as at least 80%.

`CCCCON(Cc1ccc(-c2noc(C(F)(F)F)n2)cc1)C(=O)CCCOC` [Compound 1.643, N-butoxy-4-methoxy-N-[[4-[5-(trifluoromethyl)-1,2,4-oxadiazol-3-yl]phenyl]methyl]-butanamide] showed an inhibition of growth at 20 ppm [1] of at least 80% and a pest or weed control at 200 ppm (Phakopsora Pachyrhizi) of at least 80%.

`CCCCON(Cc1ccc(-c2noc(C(F)(F)F)n2)cc1)C(=O)C1CCCO1` (stereo not drawn) [Compound 1.644, N-butoxy-N-[[4-[5-(trifluoromethyl)-1,2,4-oxadiazol-3-yl]phenyl]methyl]-tetrahydrofuran-2-carboxamide] gave an inhibition of growth at 20 ppm [1] of at least 80% and a pest or weed control at 200 ppm (Phakopsora Pachyrhizi) of at least 80%.

`CCCCON(Cc1ccc(-c2noc(C(F)(F)F)n2)cc1)C(=O)CC#N` [Compound 1.645, N-butoxy-2-cyano-N-[[4-[5-(trifluoromethyl)-1,2,4-oxadiazol-3-yl]phenyl]methyl]-acetamide] showed an inhibition of growth at 20 ppm [1] of at least 80% and a pest or weed control at 200 ppm (Phakopsora Pachyrhizi) of at least 80%.

For `CCCCON(Cc1ccc(-c2noc(C(F)(F)F)n2)cc1)C(=O)C1(C#N)CC1` [Compound 1.646, N-butoxy-1-cyano-N-[[4-[5-(trifluoromethyl)-1,2,4-oxadiazol-3-yl]phenyl]methyl]-cyclopropane-carboxamide], the inhibition of growth at 20 ppm [1] was at least 80% and the pest or weed control at 200 ppm (Phakopsora Pachyrhizi) was at least 80%.

`CCCCON(Cc1ccc(-c2noc(C(F)(F)F)n2)cc1)C(=O)CC(F)(F)F` [Compound 1.648, N-butoxy-3,3,3-trifluoro-N-[[4-[5-(trifluoromethyl)-1,2,4-oxadiazol-3-yl]phenyl]methyl]-propanamide] gave an inhibition of growth at 20 ppm [1] of at least 80% and a pest or weed control at 200 ppm (Phakopsora Pachyrhizi) of at least 80%.

Compound `CCCCON(Cc1ccc(-c2noc(C(F)(F)F)n2)cc1)C(C)=O` [Compound 1.649, N-butoxy-N-[[4-[5-(trifluoromethyl)-1,2,4-oxadiazol-3-yl]phenyl]methyl]-acetamide] has an inhibition of growth at 20 ppm [1] of at least 80% and a pest or weed control at 200 ppm (Phakopsora Pachyrhizi) of at least 80%.

`CCCN(Cc1ccc(-c2noc(C(F)(F)F)n2)cc1)C(=O)c1ccccc1Cl` [Compound 1.653, 2-chloro-N-propyl-N-[[4-[5-(trifiuoromethyl)-1,2,4-oxadiazol-3-yl]phenyl]methyl]-benzamide] was tested, and the inhibition of growth at 20 ppm [1] was at least 80% and the pest or weed control at 200 ppm (Phakopsora Pachyrhizi) was at least 80%.

`CCCN(Cc1ccc(-c2noc(C(F)(F)F)n2)cc1)C(=O)C1CC1C` (stereo not drawn) [Compound 1.657, 2-methyl-N-propyl-N-[[4-[5-(trifluoromethyl)-1,2,4-oxadiazol-3-yl]phenyl]methyl]-cyclopropane-carboxamide] showed an inhibition of growth at 20 ppm [1] of at least 80% and a pest or weed control at 200 ppm (Phakopsora Pachyrhizi) of at least 80%.

Work on `O=C(c1ccccc1Cl)N(Cc1ccc(-c2noc(C(F)(F)F)n2)cc1)CC(F)(F)F` [Compound 1.691, 2-chloro-N-(2,2,2-trifluoroethyl)-N-[[4-[5-(trifluoromethyl)-1,2,4-oxadiazol-3-yl]phenyl]methyl]-benzamide] yielded an inhibition of growth at 20 ppm [1] of at least 80% and a pest or weed control at 200 ppm (Phakopsora Pachyrhizi) of at least 80%.

With `O=C(C1CCC1)N(Cc1ccc(-c2noc(C(F)(F)F)n2)cc1)CC(F)(F)F` [Compound 1.694, N-(2,2,2-trifluoroethyl)-N-[[4-[5-(trifluoromethyl)-1,2,4-oxadiazol-3-yl]phenyl]methyl]-cyclobutane-carboxamide] the inhibition of growth at 20 ppm [1] was at least 80% and the pest or weed control at 200 ppm (Phakopsora Pachyrhizi) was at least 80%.

Compound `CC1CC1C(=O)N(Cc1ccc(-c2noc(C(F)(F)F)n2)cc1)CC(F)(F)F` (stereo not drawn) [Compound 1.695, 2-methyl-N-(2,2,2-trifluoroethyl)-N-[[4-[5-(trifluoromethyl)-1,2,4-oxadiazol-3-yl]phenyl]methyl]-cyclopropane-carboxamide] has an inhibition of growth at 20 ppm [1] of at least 80% and a pest or weed control at 200 ppm (Phakopsora Pachyrhizi) of at least 80%.

For `CCC(C)C(=O)N(Cc1ccc(-c2noc(C(F)(F)F)n2)cc1)CC(F)(F)F` (stereo not drawn) [Compound 1.697, 2-methyl-N-(2,2,2-trifluoroethyl)-N-[[4-[5-(trifluoromethyl)-1,2,4-oxadiazol-3-yl]phenyl]methyl]-butanamide], the inhibition of growth at 20 ppm [1] was at least 80% and the pest or weed control at 200 ppm (Phakopsora Pachyrhizi) was at least 80%.

In the case of `CCC(COC)C(=O)N(Cc1ccc(-c2noc(C(F)(F)F)n2)cc1)CC(F)(F)F` (stereo not drawn) [Compound 1.699, 2-(methoxymethyl)-N-(2,2,2-trifluoroethyl)-N-[[4-[5-(trifluoromethyl)-1,2,4-oxadiazol-3-yl]phenyl]methyl]-butanamide], the inhibition of growth at 20 ppm [1] is reported as at least 80% and the pest or weed control at 200 ppm (Phakopsora Pachyrhizi) is reported as at least 80%.
